This note sets out measurements from patent publication US9371336B2, “Compounds for treating spinal muscular atrophy” (PTC Therapeutics Inc., priority 2012, dated 2016).

Data set [1] relates to SMN2 minigene mRNA (SMN2-A minigene construct). Description: SMN2 minigene mRNA splicing RT-qPCR assay in cultured cells. The following applies: Homo sapiens, HEK293-H; HEK293H cells stably transfected with SMN2-A minigene, 24 hours, 7-point concentration data; concentration giving 1.5-fold SMN2 full length mRNA relative to vehicle-treated cells; read-out: EC1.5x for production of full length SMN2 mRNA. It counts as cell-based, human. The gist of the method:
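Full-length SMN2 minigene mRNA, measured by exon 7/luciferase-specific RT-qPCR that excludes endogenous SMN1/SMN2, was normalized to GAPDH and expressed relative to vehicle-treated cells via modified ΔΔCt. Stably transfected HEK293H cells received compound (7-point, 3.16-fold series, duplicates) for 24 h at 37 °C.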
A general note: Real-time PCR tracks product formation cycle by cycle.

Data set [2] relates to Smn protein. Description: Smn protein assay (HTRF) in cultured cells (SMA patient fibroblasts GM03813). It counts as cell-based, human. The settings on record: 48 hours; for EC1.5x for Smn protein expression: SMA patient fibroblast cells (GM03813), HTRF, 7-point concentration data, concentration producing 1.5 times Smn protein vs DMSO vehicle control; for maximum fold (Fold) increase of Smn protein: SMA patient fibroblast cells, 7-point concentration curve, relative to vehicle control. In a few lines:
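Smn level is expressed as fold over vehicle, from blank-corrected ΔF of the 665/620 nm HTRF ratio. Readout used anti-SMN d2 and kryptate antibodies on RIPA lysates. GM03813 SMA fibroblasts had 48 h exposure at 37° C to seven 3.16-fold compound dilutions, run in triplicate.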

Molecules are shown by their SMILES.

As usually defined, the melting point is the temperature of the solid-liquid transition. For `Cc1ccc2nc(-c3cc4ccc(N5CCCN(C)CC5)nc4oc3=O)cn2c1` [Cpd 116, 7-(4-methyl-1,4-diazepan-1-yl)-3-(6-methylimidazo[1,2-a]pyridin-2-yl)-2H-pyrano[2,3-b]pyridin-2-one], the melting point lay in the range of 233 to 236 °C. For the same compound, the EC (1.5-fold) in data set [1] was ≤ 0.1 µM. Further, in data set [2], the “EC1.5x for Smn protein expression” value was “*** (an EC1.5× between >0.3 μM and ≦1 μM is indicated by three stars (***))”; the “maximum fold (Fold) increase of Smn protein” value (from here on “maximum fold (Fold) increase”) is “*** (a fold increase between >1.35 and ≦1.5 is indicated by three stars (***))”.
As for `Cl.O=c1oc2cc(N3CCNCC3)ncc2cc1-c1cn2ccccc2n1` [Cpd 42, 3-(imidazo[1,2-a]pyridin-2-yl)-7-(piperazin-1-yl)-2H-pyrano[3,2-c]pyridin-2-one hydrochloride], the melting point lay within 278 to 284 °C. The EC (1.5-fold) in data set [1] lay within 3 to 30 µM. Further, the “maximum fold (Fold) increase” value in data set [2] is “** (a fold increase between >1.2 and ≦1.35 is indicated by two stars (**))”.
For the compound `C[C@@H]1CN(c2ccc3cc(-c4cn5cccc(F)c5n4)c(=O)oc3n2)C[C@H](C)N1C` [Cpd 119, 3-(8-fluoroimidazo[1,2-a]pyridin-2-yl)-7-[(3R,5 S)-3,4,5-trimethylpiperazin-1-yl]-2H-pyrano[2,3-b]pyridin-2-one], the melting point fell in the range of 242 to 245 °C. In data set [1], the EC (1.5-fold) is ≤ 0.1 µM. In addition, in data set [2], the “EC1.5x for Smn protein expression” value is on record as “**** (an EC1.5×≦0.3 μM is indicated by four stars (****))”; the “maximum fold (Fold) increase” value was “**** (a fold increase between >1.5 and ≦1.65 is indicated by four stars (****))”.
For `Cc1cc(F)c2nc(-c3cc4ccc(N5C[C@@H](C)N[C@@H](C)C5)nc4oc3=O)cn2c1` [Cpd 106, 7-[(3R,5S)-3,5-dimethylpiperazin-1-yl]-3-(8-fluoro-6-methylimidazo[1,2-a]pyridin-2-yl)-2H-pyrano[2,3-b]pyridin-2-one], the melting point is 280 to 283 °C. The EC (1.5-fold) in data set [1] was ≤ 0.1 µM. In data set [2], the “EC1.5x for Smn protein expression” value was “*** (an EC1.5× between >0.3 μM and ≦1 μM is indicated by three stars (***))”; the “maximum fold (Fold) increase” value was “*** (a fold increase between >1.35 and ≦1.5 is indicated by three stars (***))”.
As to `C[C@@H]1CN(C)[C@@H](C)CN1c1ccc2cc(-c3cn4cccc(F)c4n3)c(=O)oc2n1` [Cpd 97, 3-(8-fluoroimidazo[1,2-a]pyridin-2-yl)-7-[(2R,5S)-2,4,5-trimethylpiperazin-1-yl]-2H-pyrano[2,3-b]pyridin-2-one], the melting point was 194 to 197 °C. Moreover, the EC (1.5-fold) in data set [1] lay in the range of 0.1 to 0.3 µM. In addition, in data set [2], the “EC1.5x for Smn protein expression” value is “** (an EC1.5× between >1 and ≦3 μM is indicated by two stars (**))”; the “maximum fold (Fold) increase” value was “**** (a fold increase between >1.5 and ≦1.65 is indicated by four stars (****))”.
`Cl.O=c1oc2nc(N3CCCNCC3)ccc2cc1-c1nc2ccccc2o1` [Cpd 52, 3-(1,3-benzoxazol-2-yl)-7-(1,4-diazepan-1-yl)-2H-pyrano[2,3-b]pyridin-2-one hydrochloride] gave a melting point of 243 to 245 °C. In data set [1], the EC (1.5-fold) was in the range of 3 to 30 µM. Moreover, in data set [2], the “maximum fold (Fold) increase” value was “* (A maximum fold increase ≦1.2 is indicated by one star (*))”.
In turn, `CCN1CCCN(c2ccc3cc(-c4cn5cc(C)nc(C)c5n4)c(=O)oc3n2)CC1` [Cpd 128, 3-(6,8-dimethylimidazo[1,2-a]pyrazin-2-yl)-7-(4-ethyl-1,4-diazepan-1-yl)-2H-pyrano[2,3-b]pyridin-2-one] registered a melting point of 289 to 291 °C. The EC (1.5-fold) in data set [1] was ≤ 0.1 µM. In addition, in data set [2], the “EC1.5x for Smn protein expression” value is given as “**** (an EC1.5×≦0.3 μM is indicated by four stars (****))” and the “maximum fold (Fold) increase” value was “***** (a fold increase >1.65 is indicated by five stars (*****))”.
Regarding `O=c1oc2nc(N3CCN(CC(O)CO)CC3)ccc2cc1-c1nc2c(Cl)cccc2s1` (centres unmarked) [Cpd 22, 3-(4-chloro-1,3-benzothiazol-2-yl)-7-[4-(2,3-dihydroxypropyl)piperazin-1-yl]-2H-pyrano[2,3-b]pyridin-2-one], the melting point lay in the range of 216 to 220 °C. The EC (1.5-fold) in data set [1] lay within 0.3 to 1 µM. For the same compound, in data set [2], the “EC1.5x for Smn protein expression” value is “*** (an EC1.5× between >0.3 μM and ≦1 μM is indicated by three stars (***))”; the “maximum fold (Fold) increase” value is “**** (a fold increase between >1.5 and ≦1.65 is indicated by four stars (****))”.
Take `Cl.O=c1oc2nc(N3CCCNCC3)ccc2cc1-c1nc2c(Cl)cccc2s1` [Cpd 31, 3-(4-chloro-1,3-benzothiazol-2-yl)-7-(1,4-diazepan-1-yl)-2H-pyrano[2,3-b]pyridin-2-one hydrochloride]: the melting point was in the range of 271 to 273 °C. Moreover, the EC (1.5-fold) in data set [1] was 0.1 to 0.3 µM. In data set [2], the “maximum fold (Fold) increase” value was “** (a fold increase between >1.2 and ≦1.35 is indicated by two stars (**))”.
`Cc1ccn2cc(-c3cc4ccc(N5CCCN(C)CC5)nc4oc3=O)nc2c1` [Cpd 115, 7-(4-methyl-1,4-diazepan-1-yl)-3-(7-methylimidazo[1,2-a]pyridin-2-yl)-2H-pyrano[2,3-b]pyridin-2-one] registered a melting point of 241 to 243 °C. Besides, in data set [1], the EC (1.5-fold) was ≤ 0.1 µM. Besides, the “maximum fold (Fold) increase” value in data set [2] is “*** (a fold increase between >1.35 and ≦1.5 is indicated by three stars (***))”.
Compound `CCN1CCN(c2ccc3cc(-c4cn5cc(C)nc(C)c5n4)c(=O)oc3n2)CC1` [Cpd 140, 3-(6,8-dimethylimidazo[1,2-a]pyrazin-2-yl)-7-(4-ethylpiperazin-1-yl)-2H-pyrano[2,3-b]pyridin-2-one] registered a melting point of 238 to 241 °C. In addition, the EC (1.5-fold) in data set [1] was 0.3 to 1 µM. Besides, in data set [2], the “EC1.5x for Smn protein expression” value was “** (an EC1.5× between >1 and ≦3 μM is indicated by two stars (**))”; the “maximum fold (Fold) increase” value was “**** (a fold increase between >1.5 and ≦1.65 is indicated by four stars (****))”.
The compound `O=c1oc2nc(N3CCN(CCO)CC3)ccc2cc1-c1nc2c(Cl)cccc2s1` [Cpd 10, 3-(4-chloro-1,3-benzothiazol-2-yl)-7-[4-(2-hydroxyethyl)piperazin-1-yl]-2H-pyrano[2,3-b]pyridin-2-one] yielded a melting point of 258 to 262 °C. Further, the EC (1.5-fold) in data set [1] lay within 0.3 to 1 µM. Further, in data set [2], the “EC1.5x for Smn protein expression” value is “*** (an EC1.5× between >0.3 μM and ≦1 μM is indicated by three stars (***))”; the “maximum fold (Fold) increase” value was “*** (a fold increase between >1.35 and ≦1.5 is indicated by three stars (***))”.
With `CN1CCN(c2ccc3cc(-c4nc5ccccc5s4)c(=O)oc3n2)CC1` [Cpd 3, 3-(1,3-benzothiazol-2-yl)-7-(4-methylpiperazin-1-yl)-2H-pyrano[2,3-b]pyridin-2-one], the melting point was in the range of 247 to 250 °C. Further, in data set [1], the EC (1.5-fold) was in the range of 0.3 to 1 µM. In data set [2], the “EC1.5x for Smn protein expression” value was “* (An EC1.5× for Smn protein expression between >3 μM and ≦10 μM is indicated by one star (*))”; the “maximum fold (Fold) increase” value was “*** (a fold increase between >1.35 and ≦1.5 is indicated by three stars (***))”.
Compound `C[C@H]1CN(c2ccc3cc(-c4cn5cccc(F)c5n4)c(=O)oc3n2)CCN1C` [Cpd 69, 7-[(3S)-3,4-dimethylpiperazin-1-yl]-3-(8-fluoroimidazo[1,2-a]pyridin-2-yl)-2H-pyrano[2,3-b]pyridin-2-one] yielded a melting point of 222 to 225 °C. Also, the EC (1.5-fold) in data set [1] is ≤ 0.1 µM. In data set [2], the “EC1.5x for Smn protein expression” value is given as “**** (an EC1.5×≦0.3 μM is indicated by four stars (****))” and the “maximum fold (Fold) increase” value was “***** (a fold increase >1.65 is indicated by five stars (*****))”.
Regarding `Cc1cn2cc(-c3cc4ccc(N5C[C@@H](C)N[C@@H](C)C5)nc4oc3=O)nc2cn1` [Cpd 101, 7-[(3R,5S)-3,5-dimethylpiperazin-1-yl]-3-(6-methylimidazo[1,2-a]pyrazin-2-yl)-2H-pyrano[2,3-b]pyridin-2-one], the melting point lay in the range of 279 to 281 °C. Further, in data set [1], the EC (1.5-fold) is ≤ 0.1 µM. Moreover, in data set [2], the “EC1.5x for Smn protein expression” value is “*** (an EC1.5× between >0.3 μM and ≦1 μM is indicated by three stars (***))”; the “maximum fold (Fold) increase” value was “**** (a fold increase between >1.5 and ≦1.65 is indicated by four stars (****))”.
Regarding `Cl.O=c1oc2nc(N3CCCNCC3)ccc2cc1-c1cn2ccsc2n1` [Cpd 32, 7-(1,4-diazepan-1-yl)-3-(imidazo[2,1-b][1,3]thiazol-6-yl)-2H-pyrano[2,3-b]pyridin-2-one hydrochloride], the melting point lay within 267 to 269 °C. Besides, the EC (1.5-fold) in data set [1] was ≤ 0.1 µM. Besides, the “maximum fold (Fold) increase” value in data set [2] is “*** (a fold increase between >1.35 and ≦1.5 is indicated by three stars (***))”.
Consider `CCCN1CCN(c2ccc3cc(-c4nc5ccccc5s4)c(=O)oc3n2)CC1` [Cpd 18, 3-(1,3-benzothiazol-2-yl)-7-(4-propylpiperazin-1-yl)-2H-pyrano[2,3-b]pyridin-2-one], for which the melting point lay within 247 to 250 °C. In addition, in data set [1], the EC (1.5-fold) lay in the range of 1 to 3 µM. The “maximum fold (Fold) increase” value in data set [2] is recorded as “* (A maximum fold increase ≦1.2 is indicated by one star (*))”.
